# Experimental data: patent publication US20080306155A1, “METHOD FOR TREATING RENAL DISEASE” (priority 2004, published 2008)
# Values joined by “and” are separate entries in the source; they are usually repeats but may differ in a detail not shown here. Equal entries are not always repeated.
# Tests used:
# Format in all cases: cell-based, rat
# isolated glomeruli [1] = experiment: Albumin permeability (Palb) of isolated glomeruli; conditions: 10 ng/ml
# Experimental: Measurement of Albumin Permeability (Palb): Glomeruli were isolated using the sieving method as previously described in a medium containing 5 g/dl of bovine serum albumin (BSA). See, Sharma R, et al, Kidney Intl. 58:131-136 (2000); and Savin V, et al. J. Am. Soc. Nephrol. 3:1260-1269 (1992). In each experimental condition, Palb was determined from the change in glomerular volume (•V) after exchange of the bath with medium containing 1 g/dl albumin. Palb was calculated as 1−(•Vexperimental/•Vcontrol) where glomeruli from SD rats fed a normal-salt diet were used to provide the control value for each experiment. To verify that lack of •Vs in Dahl S rats were related to changes in Palb rather than to changes in mechanical properties of glomeruli, additional studies were performed in which the glomeruli were exposed to a 5% solution of high molecular weight dextran.
# In other experiments, we examined the interaction of TGF-• and 20-HETE on Palb in glomeruli isolated from SD rats and Dahl S rats fed either a LS diet or a HS diet for 4 days. Glomeruli were preincubated with vehicle or TGF-•1 (10 ng/ml) for 15 minutes at 37° C. and changes in Palb were determined. Glomeruli were also pretreated with 5, 14-20-HEDE (WIT003) (1 μmol/L; Taisho Pharmaceutical; Tokyo, Japan) (Alonso-Galicia et al., supra; and Yu et al., supra), for 15 minutes at 37° C. and the Palb response to TGF-• 1 (10 ng/ml) was redetermined. A minimum of 5 glomeruli from each rat were studied, and the experiments were performed using •5 rats per treatment group.
# [2] = tested on: glomerular production of 20-HETE; experiment: LC/MS measurement of glomerular 20-HETE production
# Experimental: Liquid Chromatography/Mass Spectroscopy measurement of glomerular 20-HETE production: Glomeruli (approximately 20 μg protein) were incubated in a 0.1 mol/L KPO4 buffer containing 1 mmol/L NADPH for 30 minutes at 37° C. in the presence and absence of TGF-•1 (10 ng/ml). Incubations were stopped by acidification with formic acid, homogenized, and the homogenate extracted with chloroform:methanol (2:1) after addition of 10 ng of internal standard, 14,15-epoxyeicosa-5(Z)-enoic-methyl sulfonylimide (EEZE). Samples were reconstituted in 50% acetonitrile, cleaned up using on online, reverse-phase high performance liquid chromatography (HPLC) trapping column, and then the HETEs and epoxyeicosatrienoic acids (EETs) in the samples were separated using an isocratic step gradient on an 18C—RP 2×250 mm microbore HPLC (BetaBasic18 150×21 3•m; Thermo Hypersil-Keystone; Bellefonte, Pa.) using a mobile phase consisting of acetonitrile:water:acetic acid (57:43:0.1) for 20 minutes to resolve the HETEs followed by acetonitrile:water:acetic acid (63:37:0.1) for 15 minutes to resolve the EETs. Samples were ionized using negative ion electrospray and the peaks eluting with a mass/charge ratio (m/z) of 319 (HETEs and EETs) or 323 (internal standard) were isolated and monitored in the selective ion mass spectroscopy (MS) mode using an Agilent LSD ion trap mass spectrometer (Agilent Technologies 1100; Santa Clara Calif.). The ratio of ion abundances in the peaks of interest (HETEs and EETs, m/z 319) versus that corresponding to the closely eluting internal standard (EEZE, m/z 323) were determined and compared with a standard curve generated over a range from 0.1 ng to 2 ng of 20-HETE and EETs with each batch of samples.
# isolated glomeruli [3] = experiment: Albumin permeability (Palb) of isolated glomeruli; conditions: glomeruli from Dahl S rats fed HS diet for 7 days; 10 ng/ml
# [4] = glomeruli pretreated with TGF-•1 10 ng/ml
substance,measurement,setting,value
"TGF-•1: transforming growth factor-beta 1, applied to isolated glomeruli at 10 ng/ml",Palb after TGF-•1,isolated glomeruli [1]; glomeruli from Dahl S rats fed HS diet for 4 days,0.87±0.02
same,Palb after TGF-•1,isolated glomeruli [1]; glomeruli from Dahl S rats fed a LS diet,0.75±0.01
same,Palb after TGF-•1,"isolated glomeruli [1]; glomeruli from SD rats, 15 minutes, 37° C.",0.60±0.02 and 0.56±0.02
same,glomerular production of 20-HETE,[2]; SD glomeruli with TGF-•1 10 ng/ml,3.4±0.5 ·g/30 minutes/mg protein
same,"formation of 15-, 12- or 5-HETE or EETs",[2]; [4],without affecting
same,reduction of formation of 20-HETE,[2]; [4],97%
same,effect on Palb,isolated glomeruli [3],no effect
